Results: PubChem BioAssay (NCI)
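GI50 marks 50% less growth. TGI: concentration producing complete growth inhibition.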

Assays:
Test in all cases: DTP human tumour cell line panel, 384-well format
HS 578T breast = tested on: HS 578T breast
786-0 renal = tested on: 786-0 renal
ACHN renal = tested on: ACHN renal
OVCAR-3 ovarian = tested on: OVCAR-3 ovarian
SNB-75 CNS = tested on: SNB-75 CNS
BT-549 breast = tested on: BT-549 breast
SF-268 CNS = tested on: SF-268 CNS
COLO 205 colon = tested on: COLO 205 colon
A498 renal = tested on: A498 renal
A549 NSCLC = tested on: A549 NSCLC
TK-10 renal = tested on: TK-10 renal
SK-OV-3 ovarian = tested on: SK-OV-3 ovarian
HOP-62 NSCLC = tested on: HOP-62 NSCLC
SNB-19 CNS = tested on: SNB-19 CNS
OVCAR-8 ovarian = tested on: OVCAR-8 ovarian
NCI-H23 lung = tested on: NCI-H23 lung
PC-3 prostate = tested on: PC-3 prostate
SR leukemia = tested on: SR leukemia
CAKI-1 renal = tested on: CAKI-1 renal
HCC-2998 colon = tested on: HCC-2998 colon
MOLT-4 leukemia = tested on: MOLT-4 leukemia
MDA-MB-231 breast = tested on: MDA-MB-231 breast
KM12 colon = tested on: KM12 colon
M14 melanoma = tested on: M14 melanoma
DU-145 prostate = tested on: DU-145 prostate
T-47D breast = tested on: T-47D breast
HOP-92 NSCLC = tested on: HOP-92 NSCLC
SK-MEL-5 melanoma = tested on: SK-MEL-5 melanoma

`COc1cccc(-c2cc(=O)c3ccccc3o2)c1N` was tested, and the GI50 (HS 578T breast) was 47.7 µM, the TGI (HS 578T breast) was greater than 100 µM and the GI50 (786-0 renal) was greater than 100 µM. The TGI (786-0 renal) was greater than 100 µM, the GI50 (ACHN renal) was greater than 100 µM and the TGI (ACHN renal) was greater than 100 µM. For the same compound, the GI50 (OVCAR-3 ovarian) was 65 µM, the TGI (OVCAR-3 ovarian) was greater than 100 µM and the GI50 (SNB-75 CNS) was 41.1 µM. It also gave a TGI (SNB-75 CNS) greater than 100 µM, a GI50 (BT-549 breast) of 77.3 µM and a TGI (BT-549 breast) greater than 100 µM. For the same compound, the GI50 (SF-268 CNS) was greater than 100 µM, the TGI (SF-268 CNS) was greater than 100 µM and the GI50 (COLO 205 colon) was 3.97 µM. The TGI (COLO 205 colon) was 10.8 µM, the GI50 (A498 renal) was 49.7 µM and the TGI (A498 renal) was greater than 100 µM. For the same compound, the GI50 (A549 NSCLC) was greater than 100 µM, the TGI (A549 NSCLC) was greater than 100 µM and the GI50 (TK-10 renal) was greater than 100 µM. It also gave a TGI (TK-10 renal) greater than 100 µM, a GI50 (SK-OV-3 ovarian) of 79.7 µM and a TGI (SK-OV-3 ovarian) greater than 100 µM. The GI50 (HOP-62 NSCLC) was 33.1 µM, the TGI (HOP-62 NSCLC) was greater than 100 µM and the GI50 (SNB-19 CNS) was greater than 100 µM. For the same compound, the TGI (SNB-19 CNS) was greater than 100 µM, the GI50 (OVCAR-8 ovarian) was 38 µM and the TGI (OVCAR-8 ovarian) was greater than 100 µM. The GI50 (NCI-H23 lung) was 23.9 µM, the TGI (NCI-H23 lung) was 99.5 µM and the GI50 (PC-3 prostate) was greater than 100 µM. It also gave a TGI (PC-3 prostate) greater than 100 µM, a GI50 (SR leukemia) of 31.3 µM and a TGI (SR leukemia) of 96.5 µM. For the same compound, the GI50 (CAKI-1 renal) was greater than 100 µM, the TGI (CAKI-1 renal) was greater than 100 µM and the GI50 (HCC-2998 colon) was 13.8 µM. The TGI (HCC-2998 colon) was 58 µM, the GI50 (MOLT-4 leukemia) was 25.9 µM and the TGI (MOLT-4 leukemia) was 66.5 µM. For the same compound, the GI50 (MDA-MB-231 breast) was 40.4 µM, the TGI (MDA-MB-231 breast) was greater than 100 µM and the GI50 (KM12 colon) was 40.7 µM. It also gave a TGI (KM12 colon) greater than 100 µM, a GI50 (M14 melanoma) of 3.91 µM and a TGI (M14 melanoma) of 20 µM. It also gave a GI50 (DU-145 prostate) of 54.9 µM, a TGI (DU-145 prostate) greater than 100 µM and a GI50 (T-47D breast) of 59.3 µM. It also gave a TGI (T-47D breast) greater than 100 µM, a GI50 (HOP-92 NSCLC) of 56.1 µM and a TGI (HOP-92 NSCLC) greater than 100 µM. It also gave a GI50 (SK-MEL-5 melanoma) of 10.8 µM and a TGI (SK-MEL-5 melanoma) of 37.9 µM.
